One assay addresses T1, human recombinant HDAC1 (Homo sapiens, UniProt Q13547).
T1 construct: purchased Enzo Life Science BML-SE456
Description: HDAC1 enzyme activity inhibition assay (HDAC Fluorimetric Drug Discovery Kit). The class given is biochemical. To be noted: 0.3 μg enzyme, 10 μM substrate, 30° C., 60 minutes. Summed up:
(§1)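 IC50s derived from fluorescence (Ex 360, Em 460) read after a 30-min developer step. Beforehand, compounds in 5-fold dilution series reacted 60 min at 30° C with 0.3 μg human recombinant enzyme and 10 μM Fluor de Lys-SIRT1 substrate.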

The target of the next assay is T2, human recombinant HDAC6 (Homo sapiens, UniProt Q9UBN7).
T2 construct: purchased Calbiochem 382180
T2 sequence (Q9UBN7 1-1215): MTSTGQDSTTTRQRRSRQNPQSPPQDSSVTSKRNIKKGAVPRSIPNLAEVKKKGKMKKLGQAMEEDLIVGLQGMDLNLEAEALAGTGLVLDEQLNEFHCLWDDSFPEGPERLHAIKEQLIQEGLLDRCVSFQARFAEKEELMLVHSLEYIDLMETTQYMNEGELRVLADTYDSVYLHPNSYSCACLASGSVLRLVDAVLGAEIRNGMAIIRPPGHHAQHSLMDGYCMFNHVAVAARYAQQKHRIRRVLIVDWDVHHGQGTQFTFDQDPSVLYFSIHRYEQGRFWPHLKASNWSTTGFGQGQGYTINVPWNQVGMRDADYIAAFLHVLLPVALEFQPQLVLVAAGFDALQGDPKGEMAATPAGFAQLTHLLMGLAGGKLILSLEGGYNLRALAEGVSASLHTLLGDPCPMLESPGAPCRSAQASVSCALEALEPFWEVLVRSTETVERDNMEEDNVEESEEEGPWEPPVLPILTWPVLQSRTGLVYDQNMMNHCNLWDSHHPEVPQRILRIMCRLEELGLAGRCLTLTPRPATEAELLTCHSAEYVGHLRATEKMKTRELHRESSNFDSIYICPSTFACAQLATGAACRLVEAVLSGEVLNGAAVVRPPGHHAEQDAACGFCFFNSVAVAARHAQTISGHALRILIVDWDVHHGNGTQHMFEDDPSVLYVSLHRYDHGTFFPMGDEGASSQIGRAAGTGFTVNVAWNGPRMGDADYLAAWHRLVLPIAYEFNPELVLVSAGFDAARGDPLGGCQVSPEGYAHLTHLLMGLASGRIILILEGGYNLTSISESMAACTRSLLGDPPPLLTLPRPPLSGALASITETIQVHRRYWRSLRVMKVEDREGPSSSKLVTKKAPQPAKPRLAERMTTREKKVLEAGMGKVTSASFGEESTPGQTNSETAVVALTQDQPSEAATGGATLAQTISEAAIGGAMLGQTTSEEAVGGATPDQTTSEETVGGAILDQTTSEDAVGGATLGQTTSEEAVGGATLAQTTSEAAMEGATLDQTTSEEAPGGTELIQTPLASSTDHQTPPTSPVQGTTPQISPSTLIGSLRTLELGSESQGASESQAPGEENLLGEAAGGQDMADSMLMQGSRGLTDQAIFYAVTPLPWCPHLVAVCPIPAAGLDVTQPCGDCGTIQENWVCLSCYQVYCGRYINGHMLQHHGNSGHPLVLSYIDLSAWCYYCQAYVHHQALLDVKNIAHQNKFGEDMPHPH
As to the kind of experiment: HDAC6 enzyme activity inhibition assay (HDAC Fluorimetric Drug Discovery Kit). Format: biochemical. To be noted: for HDAC6 selectivity (fold): HDAC1 vs HDAC6; for IC50: same protocol as the HDAC1 enzyme activity test. Summed up:
as §1

T1 sequence (Q13547 whole entry): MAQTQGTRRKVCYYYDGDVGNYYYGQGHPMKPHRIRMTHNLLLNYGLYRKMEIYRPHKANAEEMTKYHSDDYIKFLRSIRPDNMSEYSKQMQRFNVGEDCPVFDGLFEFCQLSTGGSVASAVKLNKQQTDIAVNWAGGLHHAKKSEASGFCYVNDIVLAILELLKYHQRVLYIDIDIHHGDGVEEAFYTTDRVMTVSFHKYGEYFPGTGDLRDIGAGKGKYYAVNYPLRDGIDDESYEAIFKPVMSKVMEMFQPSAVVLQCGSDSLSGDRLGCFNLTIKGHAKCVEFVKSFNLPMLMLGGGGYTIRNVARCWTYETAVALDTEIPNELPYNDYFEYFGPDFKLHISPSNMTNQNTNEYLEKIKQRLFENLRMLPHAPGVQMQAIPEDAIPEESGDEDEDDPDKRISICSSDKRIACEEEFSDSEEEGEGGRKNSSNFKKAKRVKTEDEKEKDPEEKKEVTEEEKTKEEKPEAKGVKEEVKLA

With `O=S(=O)(CCN1CCCC1)N(Cc1ccc(-c2nnc(C(F)F)o2)cc1)c1ccccc1` [Compound 11645, N-(4-(5-(difluoromethyl)-1,3,4-oxadiazol-2-yl)benzyl)-N-phenyl-2-(pyrrolidin-1-yl)ethane-1-sulfonamide], the IC50 (usually the midpoint of a concentration-inhibition curve) on human recombinant HDAC1 was 77.9 µM. Further, on human recombinant HDAC6, the “HDAC6 selectivity (fold)” value is reported as 1277 fold and the half-inhibitory concentration (IC50) is 0.061 µM.
Take `Cc1cccc(N(Cc2ccc(-c3nnc(C(F)F)o3)cn2)S(=O)(=O)C2CCN([C@H]3CC[C@H](F)CC3)CC2)c1` [Compound 11688, N-((5-(5-(difluoromethyl)-1,3,4-oxadiazol-2-yl)pyridin-2-yl)methyl)-1-((1r,4r)-4-fluorocyclohexyl)-N-(m-tolyl)piperidine-4-sulfonamide]: the values for the IC50 at human recombinant HDAC1 and on human recombinant HDAC6 were 20.2 µM and 0.0477 µM, respectively. For the same molecule, the “HDAC6 selectivity (fold)” value on human recombinant HDAC6 came out at 423 fold.
The corresponding values for `CC(=O)N1CC(N2CCC(S(=O)(=O)N(Cc3ccc(-c4nnc(C(F)F)o4)cn3)c3ccc(F)c(Cl)c3)CC2)C1` [Compound 11502, 1-(1-acetylazetidin-3-yl)-N-(3-chloro-4-fluorophenyl)-N-((5-(5-(difluoromethyl)-1,3,4-oxadiazol-2-yl)pyridin-2-yl)methyl)piperidine-4-sulfonamide] are 78.1 µM, 0.014 µM and 5579 fold.
For `CCS(=O)(=O)N(Cc1ccc(-c2nnc(C(F)F)o2)cn1)c1ccc(F)c(C)c1` [Compound 11461, N-((5-(5-(difluoromethyl)-1,3,4-oxadiazol-2-yl)pyridin-2-yl)methyl)-N-(4-fluoro-3-methylphenyl)ethanesulfonamide], the IC50 at human recombinant HDAC1 turned out to be 27.7 µM; at human recombinant HDAC6 it was 0.01 µM. Besides, the “HDAC6 selectivity (fold)” value on human recombinant HDAC6 turned out to be 2769 fold.
Turning to `CCS(=O)(=O)N(Cc1ccc(-c2nnc(C(F)F)o2)cn1)c1cc(C)cc(Cl)c1` [Compound 11508, N-(3-chloro-5-methylphenyl)-N-((5-(5-(difluoromethyl)-1,3,4-oxadiazol-2-yl)pyridin-2-yl)methyl)ethanesulfonamide], the values for the IC50 at human recombinant HDAC1 and on human recombinant HDAC6 were 49.6 µM and 0.023 µM, respectively. In addition, the “HDAC6 selectivity (fold)” value on human recombinant HDAC6 is 2155 fold.
Regarding `CS(=O)(=O)N(Cc1ccc(-c2nnc(C(F)(F)F)o2)cc1F)c1cccc(Br)c1` [Compound 11196, N-(3-bromophenyl)-N-(2-fluoro-4-(5-(trifluoromethyl)-1,3,4-oxadiazol-2-yl)benzyl)methanesulfonamide], the IC50 on human recombinant HDAC1 came out at 28.7 µM; at human recombinant HDAC6, 0.065 µM. Moreover, the “HDAC6 selectivity (fold)” value on human recombinant HDAC6 was 441 fold.
In the same order, the values of `O=S(=O)(CCCN1CCCC1)N(Cc1ccc(-c2nnc(C(F)F)o2)cn1)c1ccccc1` [Compound 11710, N-((5-(5-(difluoromethyl)-1,3,4-oxadiazol-2-yl)pyridin-2-yl)methyl)-N-phenyl-3-(pyrrolidin-1-yl)propane-1-sulfonamide] are 29.4 µM, 0.0509 µM and 578 fold.
In the same order, the values of `NC(=O)[C@@H]1CCCN1CCS(=O)(=O)N(Cc1ccc(-c2nnc(C(F)F)o2)cn1)c1ccccc1` [Compound 11847, (S)-1-(2-(N-((5-(5-(difluoromethyl)-1,3,4-oxadiazol-2-yl)pyridin-2-yl)methyl)-N-phenylsulfamoyl)ethyl)pyrrolidine-2-carboxamide] are 24.5 µM, 0.0551 µM and 445 fold.
As to `CCS(=O)(=O)N(Cc1ccc(-c2nnc(C(F)(F)F)o2)cn1)c1ccc(F)c(Cl)c1` [Compound 11429, N-(3-chloro-4-fluorophenyl)-N-((5-(5-(trifluoromethyl)-1,3,4-oxadiazol-2-yl)pyridin-2-yl)methyl)ethanesulfonamide], the IC50 at human recombinant HDAC1 worked out at 18.7 µM. Moreover, on human recombinant HDAC6, the “HDAC6 selectivity (fold)” value is recorded as 288 fold and the IC50 is 0.065 µM.
The corresponding values for `NC(=O)[C@H]1CCCN1CCS(=O)(=O)N(Cc1ccc(-c2nnc(C(F)F)o2)cn1)c1ccccc1` [Compound 11848, (R)-1-(2-(N-((5-(5-(difluoromethyl)-1,3,4-oxadiazol-2-yl)pyridin-2-yl)methyl)-N-phenylsulfamoyl)ethyl)pyrrolidine-2-carboxamide] are 38.9 µM, 661 fold and 0.0589 µM.
Consider `CCS(=O)(=O)N(Cc1ccc(-c2nnc(C(F)F)o2)cn1)c1ccc(Cl)c(C)c1` [Compound 11504, N-(4-chloro-3-methylphenyl)-N-((5-(5-(difluoromethyl)-1,3,4-oxadiazol-2-yl)pyridin-2-yl)methyl)ethanesulfonamide], for which the 50% inhibitory concentration (IC50) at human recombinant HDAC1 was 86.2 µM; at human recombinant HDAC6 it was 0.018 µM. Moreover, on human recombinant HDAC6, the “HDAC6 selectivity (fold)” value was 4790 fold.
The corresponding values for `CS(=O)(=O)N(Cc1ccc(-c2nnc(C(F)(F)F)o2)nc1)c1ccccc1` [Compound 11173, N-phenyl-N-((6-(5-(trifluoromethyl)-1,3,4-oxadiazol-2-yl)pyridin-3-yl)methyl)methanesulfonamide] are 28.6 µM, 0.661 µM and 43 fold.
In the same order, the values of `Cc1cccc(N(Cc2ccc(-c3nnc(C(F)F)o3)cc2)S(=O)(=O)C2CCN([C@H]3CC[C@H](F)CC3)CC2)c1` [Compound 11695, N-(4-(5-(difluoromethyl)-1,3,4-oxadiazol-2-yl)benzyl)-1-((1r,4r)-4-fluorocyclohexyl)-N-(m-tolyl)piperidine-4-sulfonamide] are 61.4 µM, 0.2 µM and 306 fold.
Regarding `CC(C)N1CCC(S(=O)(=O)N(Cc2ccc(-c3nnc(C(F)F)o3)cc2)c2ccccc2)CC1` [Compound 11638, N-(4-(5-(difluoromethyl)-1,3,4-oxadiazol-2-yl)benzyl)-1-isopropyl-N-phenylpiperidine-4-sulfonamide], the IC50 on human recombinant HDAC1 is 40.9 µM. Also, on human recombinant HDAC6, the “HDAC6 selectivity (fold)” value was determined as 1778 fold and the IC50 is 0.023 µM.
For `CCS(=O)(=O)N(Cc1ccc(-c2nnc(C(F)F)o2)cc1F)c1ccc2cnn(C)c2c1` [Compound 11521, N-(4-(5-(difluoromethyl)-1,3,4-oxadiazol-2-yl)-2-fluorobenzyl)-N-(1-methyl-1H-indazol-6-yl)ethanesulfonamide], on human recombinant HDAC1, the IC50 was found to be 43.3 µM. In addition, at human recombinant HDAC6, the “HDAC6 selectivity (fold)” value is listed as 2407 fold and the IC50 is 0.018 µM.
In the same order, the values of `CS(=O)(=O)N(Cc1ccc(-c2nnc(C(F)(F)F)o2)cc1)c1ccccc1` [Compound 11167, N-phenyl-N-(4-(5-(trifluoromethyl)-1,3,4-oxadiazol-2-yl)benzyl)methanesulfonamide] are 34.2 µM, 900 fold and 0.038 µM.
Regarding `COc1cccc(N(Cc2ccc(-c3nnc(C(F)(F)F)o3)cc2F)S(C)(=O)=O)c1` [Compound 11179, N-(2-fluoro-4-(5-(trifluoromethyl)-1,3,4-oxadiazol-2-yl)benzyl)-N-(3-methoxyphenyl)methanesulfonamide], the IC50 at human recombinant HDAC1 is 7.81 µM. At human recombinant HDAC6, the “HDAC6 selectivity (fold)” value is given as 211 fold and the IC50 was determined as 0.037 µM.
Consider `CS(=O)(=O)N(Cc1ccc(-c2nnc(C(F)(F)F)o2)cn1)c1cccc(F)c1` [Compound 11216, N-(3-fluorophenyl)-N-((5-(5-(trifluoromethyl)-1,3,4-oxadiazol-2-yl)pyridin-2-yl)methyl)methanesulfonamide], for which the IC50 on human recombinant HDAC1 came out at 28 µM. Also, at human recombinant HDAC6, the “HDAC6 selectivity (fold)” value was determined as 368 fold and the IC50 is 0.076 µM.
Take `CN1CC(N2CCC(S(=O)(=O)N(Cc3ccc(-c4nnc(C(F)F)o4)cc3F)c3ccc(F)c(Cl)c3)CC2)C1` [Compound 11451, N-(3-chloro-4-fluorophenyl)-N-(4-(5-(difluoromethyl)-1,3,4-oxadiazol-2-yl)-2-fluorobenzyl)-1-(1-methylazetidin-3-yl)piperidine-4-sulfonamide]: the half-inhibitory concentration (IC50) was found to be 27.2 µM at human recombinant HDAC1 and 0.009 µM on human recombinant HDAC6. For the same molecule, the “HDAC6 selectivity (fold)” value on human recombinant HDAC6 is recorded as 3018 fold.
